This is an account of results in US8415357B2 (Canbas Co., Ltd., priority 2007, dated 2013).

Entries after “also recorded” stand apart in the source; their conditions may differ.

In one data set the test system is Jurkat cells. In words: Adaptation to G2 cell cycle arrest (G1 increment) in X-ray pre-arrested Jurkat cells, flow cytometry. In kind it is cell-based, human. Conditions: for IC50: Homo sapiens, Jurkat, 24 h, concentration causing half-maximal increase of % cells in G1 phase (G1 increment), Jurkat pre-arrested by 10 Gy X-ray, 24 hours with compound. An outline of the steps:
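Jurkat cells were G2-arrested by 10 Gy X-ray irradiation and held 24 h in 10% FCS/RPMI1640 at 37 °C. They were then exposed to compounds for a further 24 h. Propidium iodide staining and flow cytometry gave the %G1 cells, and IC50 (μM) is the concentration giving a half-maximal G1 increment.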

Another data set concerns ARH-77 cells. In words: Survival of SCID mice with xenografts of ARH-77 cells. Conditions: for cytotoxicity against normal cells (the mouse graft host): administered intraperitoneally or orally to SCID mice with ARH-77 xenografts.

Protocol for ARH-77 cells: For the experiment shown in FIG. 6, mice received 1.9×10^6 ARH-77 cells by intraperitoneal transplantation. […] Mice treated with dexamethasone (“Dexa”) received an intraperitoneal injection of 2 mg/kg dexamethasone. Vehicle treated control animals received intraperitoneal vehicle injection. Each injection was performed on day 1, day 2 and day 3 after transplantation of ARH-77 cells.
For the experiment shown in FIG. 7, mice received 0.8×10^6 ARH-77 cells by intraperitoneal transplantation.
For the experiment shown in FIG. 8, mice received 4.1×10^6 ARH-77 cells by intraperitoneal transplantation.

For the compound `CC1=C(CCC(=O)OC(C)(C)C)C(=O)N(Nc2ccc(C(F)(F)F)c(Cl)n2)C1=O` [Compound S01860, tert-butyl 3-(1-{[6-chloro-5-(trifluoromethyl)(2-pyridyl)]amino}-4-methyl-2,5-dioxoazolin-3-yl) propanoate], the IC50 in the data set with Jurkat cells (Table 2) stood at 30 nM. In the data set with Jurkat cells (Jurkat cells pre-arrested at G2 by X-ray 10 Gy, 0.019 μM to 0.625 μM, 24 hours), the “percentage of cells in G1 phase” value is “dose-dependent increase in the percentage of cells in G1 phase; also recorded: significant increase in the number of G1 cells”. Further, the “first decrease in survival, days after transplantation” value in the data set on ARH-77 cells (0.8×10^6 ARH-77 cells i.p., single oral administration 750 mg/kg on Day 1) was 70 days. In addition, the “survival at 85 days” value in the data set on ARH-77 cells (0.8×10^6 ARH-77 cells i.p., single oral administration 750 mg/kg on Day 1, control about 20%) was about 90%. The “cytotoxicity against normal cells (the mouse graft host)” value (shortened to “cytotoxicity against normal cells”) with ARH-77 cells is “no detectable cytotoxicity against normal cells”.

For `CC1=C(C)C(=O)N(Nc2cc(CN3CCN(C(=O)c4ccccc4Cl)CC3)c3ccc(Br)cc3n2)C1=O` [Compound S01878, 1-{[7-bromo-4-({4-[(2-chlorophenyl)carbonyl]piperazinyl}methyl) (2-quinolyl)]amino}-3,4-dimethylazoline-2,5-dione], in the data set on Jurkat cells (Table 2), the IC50 was 234 nM.

On to `COc1ccccc1C(=O)N1CCN(Cc2cc(NN3C(=O)C(C)=C(C)C3=O)nc3cc(Br)ccc23)CC1` [Compound S01879, 1-{[7-bromo-4-({4-[(2-methoxyphenyl)carbonyl]piperazinyl}methyl) (2-quinolyl)]amino}-3,4-dimethylazoline-2,5-dione], for which, in the data set on Jurkat cells (Table 2), the IC50 turned out to be 78 nM.

Regarding `CC1=C(C)C(=O)N(Nc2cc(CN3CCN(C(=O)c4ccc(N(C)C)cc4)CC3)c3ccc(Br)cc3n2)C1=O` [Compound S01880, 1-({4-[(4-{[4-(dimethylamino)phenyl]carbonyl}piperazinyl)methyl]-7-bromo (2-quinolyl)}amino)-3,4-dimethylazoline-2,5-dione], the IC50 with Jurkat cells (Table 2) worked out at 312 nM.

Regarding `CNC(=O)CCC1=C(C)C(=O)N(Nc2ccc(C(F)(F)F)c(Cl)n2)C1=O` [Compound S01883, 3-(1-{[6-chloro-5-(trifluoromethyl)(2-pyridyl)]amino}-4-methyl-2,5-dioxoazolin-3-yl)-N-methylpropanamide], the IC50 in the data set on Jurkat cells (Table 2) came to 234 nM.

`COc1cccc(C(=O)N2CCN(Cc3cc(NN4C(=O)C(C)=C(C)C4=O)nc4cc(Br)ccc34)CC2)c1` [Compound S01925, 1-{[7-bromo-4-({4-[(3-methoxyphenyl)carbonyl]piperazinyl}methyl) (2-quinolyl)]amino}-3,4-dimethylazoline-2,5-dione]: the IC50 with Jurkat cells (Table 2) is 156 nM.

For the compound `CC1=C(C)C(=O)N(Nc2cc(CN3CCN(C4CCN(C(=O)OC(C)(C)C)CC4)CC3)c3ccc(Br)cc3n2)C1=O` [Compound S01928, tert-butyl 4-[4-({2-[(3,4-dimethyl-2,5-dioxoazolinyl)amino]-7-bromo-4-quinolyl}methyl)piperazinyl]piperidinecarboxylate], in the data set with Jurkat cells (Table 2), the IC50 came to 938 nM.

With `CC1=C(C)C(=O)N(Nc2nc(Cl)c(C(F)(F)F)cc2Br)C1=O` [Compound S01981, 1-{[3-bromo-6-chloro-5-(trifluoromethyl)(2-pyridyl)]amino}-3,4-dimethylazoline-2,5-dione], in the data set with Jurkat cells (Table 2), the IC50 was determined as 78 nM.

For `CC1=C(CC(=O)OC(C)(C)C)C(=O)N(Nc2ccc(C(F)(F)F)c(Cl)n2)C1=O` [Compound S02225, tert-butyl 2-(1-{[6-chloro-5-(trifluoromethyl) (2-pyridyl)]amino}-4-methyl-2,5-dioxoazolin-3-yl)acetate], the IC50 in the data set on Jurkat cells (Table 3) came out at 30 nM.

For `CCC(C)OC(=O)CCC1=C(C)C(=O)N(Nc2ccc(C(F)(F)F)c(Cl)n2)C1=O` (stereo not shown) [Compound S02264, Methylpropyl 3-(1-{[6-chloro-5-(trifluoromethyl) (2-pyridyl)]amino}-4-methyl-2,5-dioxoazolin-3-yl) propanoate], the IC50 in the data set on Jurkat cells (Table 3) was 40 nM.

Regarding `CCOCC1=C(C)C(=O)N(Nc2ccc(C(F)(F)F)c(Cl)n2)C1=O` [Compound S02366, 1-{[6-chloro-5-(trifluoromethyl) (2-pyridyl)]amino}-3-(ethoxymethyl)-4-methylazoline-2,5-dione], the IC50 with Jurkat cells (Table 3) worked out at 40 nM.

Consider `CC1=C(COCCC(C)C)C(=O)N(Nc2ccc(C(F)(F)F)c(Cl)n2)C1=O` [Compound S03405, 1-{[6-chloro-5-(trifluoromethyl)(2-pyridyl)]amino}-4-methyl-3-[(3-methylbutoxy)methyl]azoline-2,5-dione], for which the IC50 with Jurkat cells (Table 3) was under 19 nM. For the same compound, the “cytotoxicity against normal cells” value in the data set on ARH-77 cells is reported as “no detectable cytotoxicity against normal cells”.

Take `CCCCC1=C(C)C(=O)N(Nc2ccc(C(F)(F)F)c(Cl)n2)C1=O` [Compound S03448, 3-butyl-1-{[6-chloro-5-(trifluoromethyl) (2-pyridyl)]amino}-4-methylazoline-2,5-dione]: the IC50 in the data set on Jurkat cells (Table 3) is 156 nM.

For `CC1=C(CCC2(C)OCCO2)C(=O)N(Nc2ccc(C(F)(F)F)c(Cl)n2)C1=O` [Compound S03456, 1-{[6-chloro-5-(trifluoromethyl) (2-pyridyl)]amino}-4-methyl-3-[2-(2-methyl (1,3-dioxolan-2-yl))ethyl]azoline-2,5-dione], in the data set with Jurkat cells (Table 3), the IC50 came out at 156 nM.

`CCCCOCC1=C(C)C(=O)N(Nc2ccc(C(F)(F)F)c(Cl)n2)C1=O` [Compound S03518, 3-(butoxymethyl)-1-{[6-chloro-5-(trifluoromethyl)(2-pyridyl)]amino}-4-methylazoline-2,5-dione]: the IC50 in the data set on Jurkat cells (Table 3) stood at 20 nM. Moreover, in the data set with ARH-77 cells, the “cytotoxicity against normal cells” value is recorded as “no detectable cytotoxicity against normal cells”.

`CCCC(O)CCC1=C(C)C(=O)N(Nc2ccc(C(F)(F)F)c(Cl)n2)C1=O` (stereo not shown) [Compound S03552, 1-{[6-chloro-5-(trifluoromethyl)(2-pyridyl)]amino}-4-(3-hydroxyhexyl)-3-methylazoline-2,5-dione]: in the data set on Jurkat cells (Table 3), the IC50 worked out at 60 nM.

For `COCCOCC1=C(C)C(=O)N(Nc2ccc(C(F)(F)F)c(Cl)n2)C1=O` [Compound S03742, 1-{[6-chloro-5-(trifluoromethyl)(2-pyridyl)]amino}-3-[(2-methoxyethoxy)methyl]-4-methylazoline-2,5-dione], in the data set on Jurkat cells (Table 3), the half-maximal inhibitory concentration (IC50) amounted to 120 nM.

In the case of `CCC(O)CCC1=C(C)C(=O)N(Nc2ccc(C(F)(F)F)c(Cl)n2)C1=O` (stereo not shown) [Compound S03745, 1-{[6-chloro-5-(trifluoromethyl)(2-pyridyl)]amino}-4-(3-hydroxypentyl)-3-methylazoline-2,5-dione], in the data set on Jurkat cells (Table 3), the IC50 was 60 nM.

`CC1=C(COCCC(C)(C)C)C(=O)N(Nc2ccc(C(F)(F)F)c(Cl)n2)C1=O` [Compound S03747, 3-[(3,3-dimethylbutoxy)methyl]-1-{[6-chloro-5-(trifluoromethyl) (2-pyridyl)]amino}-4-methylazoline-2,5-dione]: in the data set on Jurkat cells (Table 3), the IC50 was under 19 nM. Moreover, the “cytotoxicity against normal cells” value with ARH-77 cells is “no detectable cytotoxicity against normal cells”.

As to `CC1=C(COC(C)(C)C)C(=O)N(Nc2ccc(C(F)(F)F)c(Cl)n2)C1=O` [Compound S03873, 4-[(tert-butoxy)methyl]-1-{[6-chloro-5-(trifluoromethyl)(2-pyridyl)]amino}-3-methylazoline-2,5-dione], the IC50 in the data set on Jurkat cells (Table 3) came to 20 nM.

With `CC1=C(CCOCC(C)C)C(=O)N(Nc2ccc(C(F)(F)F)c(Cl)n2)C1=O` [Compound S03955, 1-{[6-chloro-5-(trifluoromethyl)(2-pyridyl)]amino}-4-methyl-3-[2-(2-methylpropoxy)ethyl]azoline-2,5-dione], the IC50 with Jurkat cells (Table 3) worked out at 60 nM.

Take `CC1=C(CCOCCC(C)C)C(=O)N(Nc2ccc(C(F)(F)F)c(Cl)n2)C1=O` [Compound S03956, 1-{[6-chloro-5-(trifluoromethyl)(2-pyridyl)]amino}-4-methyl-3-[2-(3-methylbutoxy)ethyl]azoline-2,5-dione]: the IC50 in the data set with Jurkat cells (Table 3) is 156 nM.

For the compound `CCOCCC1=C(C)C(=O)N(Nc2ccc(C(F)(F)F)c(Cl)n2)C1=O` [Compound S03960, 1-{[6-chloro-5-(trifluoromethyl)(2-pyridyl)]amino}-3-(2-ethoxyethyl)-4-methylazoline-2,5-dione], the IC50 in the data set with Jurkat cells (Table 3) worked out at 40 nM.

For the compound `CC1=C(COCC(C)(C)C)C(=O)N(Nc2ccc(C(F)(F)F)c(Cl)n2)C1=O` [Compound S03962, 3-[(2,2-dimethylpropoxy)methyl]-1-{[6-chloro-5-(trifluoromethyl) (2-pyridyl)]amino}-4-methylazoline-2,5-dione], the IC50 with Jurkat cells (Table 3) was under 19 nM.

As to `CC1=C(COCC(C)C)C(=O)N(Nc2ccc(C(F)(F)F)c(Cl)n2)C1=O` [Compound S03963, 1-{[6-chloro-5-(trifluoromethyl)(2-pyridyl)]amino}-4-methyl-3-[(2-methylpropoxy)methyl]azoline-2,5-dione], the IC50 with Jurkat cells (Table 3) is under 19 nM.

Take `CC1=C(COC(C)CC(C)C)C(=O)N(Nc2ccc(C(F)(F)F)c(Cl)n2)C1=O` (stereo not shown) [Compound S03964, 4-[(1,3-dimethylbutoxy)methyl]-1-{[6-chloro-5-(trifluoromethyl) (2-pyridyl)]amino}-3-methylazoline-2,5-dione]: the IC50 with Jurkat cells (Table 3) is 40 nM.

Regarding `CCCOCCC1=C(C)C(=O)N(Nc2ccc(C(F)(F)F)c(Cl)n2)C1=O` [Compound S04034, 1-{[6-chloro-5-(trifluoromethyl)(2-pyridyl)]amino}-3-methyl-4-(2-propoxyethyl)azoline-2,5-dione], the half-maximal inhibitory concentration (IC50) in the data set on Jurkat cells (Table 3) came out at 40 nM.
